Measurements reported in patent EP4745135A1 (Gluetacs Therapeutics (Shanghai) Co., Ltd., priority 2023, dated 2025).

Legend:
IKZF2 = target: T1, IKZF2 (Homo sapiens, UniProt Q96SW2+Q9UKS7); test: Western blot, degradation of substrate protein in hPBMCs; assay type: cell-based; details: Western blot, 24 hours of compound treatment, compounds tested at 50 nM and 500 nM (concentration for the table not stated)
T1 construct: effects of the compounds of the present disclosure on the expression of target proteins in cells; endogenous in cells; host or cells: human PBMCs (Milecell Biotechnologies)
T1 sequence (Q9UKS7 whole entry): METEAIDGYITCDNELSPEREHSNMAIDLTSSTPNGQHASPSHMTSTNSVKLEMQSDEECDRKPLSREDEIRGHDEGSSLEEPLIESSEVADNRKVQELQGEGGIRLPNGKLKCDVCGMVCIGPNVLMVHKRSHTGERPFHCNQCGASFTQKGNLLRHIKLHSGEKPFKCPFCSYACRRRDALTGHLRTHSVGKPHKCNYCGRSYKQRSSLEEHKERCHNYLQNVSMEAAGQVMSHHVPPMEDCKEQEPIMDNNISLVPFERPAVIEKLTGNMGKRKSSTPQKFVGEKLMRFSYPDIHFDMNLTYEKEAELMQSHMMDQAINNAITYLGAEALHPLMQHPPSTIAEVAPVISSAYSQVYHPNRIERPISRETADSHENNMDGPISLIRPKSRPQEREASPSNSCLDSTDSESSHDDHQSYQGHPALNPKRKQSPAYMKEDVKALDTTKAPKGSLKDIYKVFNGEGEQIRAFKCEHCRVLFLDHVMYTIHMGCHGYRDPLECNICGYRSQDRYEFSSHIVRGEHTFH
T1 sequence (Q96SW2 whole entry): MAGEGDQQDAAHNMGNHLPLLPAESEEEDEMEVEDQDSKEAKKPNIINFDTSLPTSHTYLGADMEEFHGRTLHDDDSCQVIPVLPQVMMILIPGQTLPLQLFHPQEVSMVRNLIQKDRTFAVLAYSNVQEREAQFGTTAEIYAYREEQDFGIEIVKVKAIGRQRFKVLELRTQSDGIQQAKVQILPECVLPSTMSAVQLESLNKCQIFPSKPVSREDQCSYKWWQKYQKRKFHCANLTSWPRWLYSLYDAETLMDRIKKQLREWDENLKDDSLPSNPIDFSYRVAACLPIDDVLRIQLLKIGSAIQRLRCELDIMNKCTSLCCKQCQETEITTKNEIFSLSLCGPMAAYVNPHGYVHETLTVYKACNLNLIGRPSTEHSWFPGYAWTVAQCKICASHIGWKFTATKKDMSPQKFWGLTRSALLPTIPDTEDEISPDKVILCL
T1 sequence (Q16531 whole entry partner): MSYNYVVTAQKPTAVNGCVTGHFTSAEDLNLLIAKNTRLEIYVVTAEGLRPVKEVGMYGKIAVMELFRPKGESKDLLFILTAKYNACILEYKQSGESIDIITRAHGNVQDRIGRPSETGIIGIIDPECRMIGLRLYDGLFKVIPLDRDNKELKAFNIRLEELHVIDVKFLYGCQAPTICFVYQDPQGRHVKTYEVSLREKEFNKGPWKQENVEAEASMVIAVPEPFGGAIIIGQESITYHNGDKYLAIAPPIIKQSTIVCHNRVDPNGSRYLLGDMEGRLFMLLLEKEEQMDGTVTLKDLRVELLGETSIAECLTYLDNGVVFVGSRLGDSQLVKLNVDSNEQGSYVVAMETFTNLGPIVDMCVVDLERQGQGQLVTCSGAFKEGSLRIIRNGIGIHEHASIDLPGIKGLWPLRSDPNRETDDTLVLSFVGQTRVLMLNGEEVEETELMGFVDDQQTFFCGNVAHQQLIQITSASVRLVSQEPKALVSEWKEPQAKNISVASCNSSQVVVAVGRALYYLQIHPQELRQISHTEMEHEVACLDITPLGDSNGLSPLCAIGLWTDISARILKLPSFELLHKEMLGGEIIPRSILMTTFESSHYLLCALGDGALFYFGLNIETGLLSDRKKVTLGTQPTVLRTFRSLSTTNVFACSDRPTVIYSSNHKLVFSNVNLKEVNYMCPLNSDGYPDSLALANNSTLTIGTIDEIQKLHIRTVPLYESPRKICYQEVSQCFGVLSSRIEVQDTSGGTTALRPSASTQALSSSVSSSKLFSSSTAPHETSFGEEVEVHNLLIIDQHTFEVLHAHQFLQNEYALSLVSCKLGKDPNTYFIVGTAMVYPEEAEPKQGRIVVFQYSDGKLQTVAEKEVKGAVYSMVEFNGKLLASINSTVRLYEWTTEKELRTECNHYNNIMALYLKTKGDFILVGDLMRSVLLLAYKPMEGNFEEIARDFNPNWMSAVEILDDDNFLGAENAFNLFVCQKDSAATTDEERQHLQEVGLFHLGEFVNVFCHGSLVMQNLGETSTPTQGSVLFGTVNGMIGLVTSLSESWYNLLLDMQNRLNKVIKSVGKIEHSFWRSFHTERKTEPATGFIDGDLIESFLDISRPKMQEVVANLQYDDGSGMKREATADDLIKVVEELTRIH

IKZF3 = target: T2, IKZF3 (Homo sapiens, UniProt Q96SW2+Q9UKT9); test: as above; assay type: cell-based; details: Western blot, 24 hours of compound treatment, compounds tested at 50 nM and 500 nM (concentration for the table not stated)
T2 construct: effects of the compounds of the present disclosure on the expression of target proteins in cells; endogenous in cells; host or cells: human PBMCs (Milecell Biotechnologies)
T2 sequence (Q9UKT9 whole entry): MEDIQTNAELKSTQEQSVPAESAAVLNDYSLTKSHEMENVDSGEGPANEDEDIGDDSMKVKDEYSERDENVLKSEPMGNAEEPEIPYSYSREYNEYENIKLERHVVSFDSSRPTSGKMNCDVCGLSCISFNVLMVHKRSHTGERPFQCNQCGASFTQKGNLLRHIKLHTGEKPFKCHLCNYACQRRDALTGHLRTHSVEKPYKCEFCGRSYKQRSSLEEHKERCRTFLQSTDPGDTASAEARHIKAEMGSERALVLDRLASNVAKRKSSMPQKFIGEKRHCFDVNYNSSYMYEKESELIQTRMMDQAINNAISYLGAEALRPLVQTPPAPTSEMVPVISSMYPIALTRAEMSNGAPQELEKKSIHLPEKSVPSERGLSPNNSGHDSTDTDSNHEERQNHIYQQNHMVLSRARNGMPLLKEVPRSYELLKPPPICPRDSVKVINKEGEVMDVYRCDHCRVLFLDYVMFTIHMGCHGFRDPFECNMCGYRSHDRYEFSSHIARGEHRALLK
T2 sequence (Q96SW2 whole entry): as the sequence (Q96SW2 whole entry) above
T2 sequence (Q16531 whole entry partner): as the sequence (Q16531 whole entry partner) above

WEE1 = target: T3, WEE1 (Homo sapiens, UniProt P30291+Q96SW2); test: as above; assay type: cell-based; details: Western blot, 24 hours of compound treatment, compounds tested at 50 nM and 500 nM (concentration for the table not stated)
T3 construct: effects of the compounds of the present disclosure on the expression of target proteins in cells; endogenous in cells; host or cells: human PBMCs (Milecell Biotechnologies)
T3 sequence (P30291 whole entry): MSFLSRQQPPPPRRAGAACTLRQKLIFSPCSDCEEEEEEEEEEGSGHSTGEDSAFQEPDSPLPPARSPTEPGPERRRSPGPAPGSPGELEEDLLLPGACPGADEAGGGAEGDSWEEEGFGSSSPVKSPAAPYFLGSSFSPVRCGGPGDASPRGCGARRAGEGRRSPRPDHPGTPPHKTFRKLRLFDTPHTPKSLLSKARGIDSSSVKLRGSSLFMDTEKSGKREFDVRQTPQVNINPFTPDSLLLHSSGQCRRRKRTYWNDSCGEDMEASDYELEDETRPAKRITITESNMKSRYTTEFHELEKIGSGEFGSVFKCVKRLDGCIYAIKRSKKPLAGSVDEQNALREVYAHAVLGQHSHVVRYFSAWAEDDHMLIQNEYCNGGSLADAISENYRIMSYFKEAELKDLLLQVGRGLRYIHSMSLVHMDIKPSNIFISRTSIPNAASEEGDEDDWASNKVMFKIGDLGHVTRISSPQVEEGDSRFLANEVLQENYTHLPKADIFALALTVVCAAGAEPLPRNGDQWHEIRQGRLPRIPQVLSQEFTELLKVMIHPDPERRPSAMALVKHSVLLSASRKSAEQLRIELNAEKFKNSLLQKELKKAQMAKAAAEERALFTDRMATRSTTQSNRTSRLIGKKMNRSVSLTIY
T3 sequence (Q96SW2 whole entry): as the sequence (Q96SW2 whole entry) above
T3 sequence (Q16531 whole entry partner): as the sequence (Q16531 whole entry partner) above

CK1α = target: T4, CK1α (Homo sapiens, UniProt P48729+Q96SW2); test: as above; assay type: cell-based; details: Western blot, 24 hours of compound treatment, compounds tested at 50 nM and 500 nM (concentration for the table not stated)
T4 construct: effects of the compounds of the present disclosure on the expression of target proteins in cells; endogenous in cells; host or cells: human PBMCs (Milecell Biotechnologies)
T4 sequence (P48729 whole entry): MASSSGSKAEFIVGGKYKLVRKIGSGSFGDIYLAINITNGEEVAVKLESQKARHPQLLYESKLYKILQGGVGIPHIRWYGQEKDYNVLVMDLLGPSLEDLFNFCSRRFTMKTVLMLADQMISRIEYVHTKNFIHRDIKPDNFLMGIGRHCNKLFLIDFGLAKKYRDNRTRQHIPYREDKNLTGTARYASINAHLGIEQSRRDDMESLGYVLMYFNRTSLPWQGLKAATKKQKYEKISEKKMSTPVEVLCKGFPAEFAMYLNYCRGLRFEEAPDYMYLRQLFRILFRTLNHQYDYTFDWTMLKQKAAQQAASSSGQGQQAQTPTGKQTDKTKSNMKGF
T4 sequence (Q96SW2 whole entry): as the sequence (Q96SW2 whole entry) above
T4 sequence (Q16531 whole entry partner): as the sequence (Q16531 whole entry partner) above

IKZF1 = target: T5, IKZF1 (Homo sapiens, UniProt Q13422+Q96SW2); test: as above; assay type: cell-based; details: Western blot, 24 hours of compound treatment, compounds tested at 50 nM and 500 nM (concentration for the table not stated)
T5 construct: effects of the compounds of the present disclosure on the expression of target proteins in cells; endogenous in cells; host or cells: human PBMCs (Milecell Biotechnologies)
T5 sequence (Q13422 whole entry): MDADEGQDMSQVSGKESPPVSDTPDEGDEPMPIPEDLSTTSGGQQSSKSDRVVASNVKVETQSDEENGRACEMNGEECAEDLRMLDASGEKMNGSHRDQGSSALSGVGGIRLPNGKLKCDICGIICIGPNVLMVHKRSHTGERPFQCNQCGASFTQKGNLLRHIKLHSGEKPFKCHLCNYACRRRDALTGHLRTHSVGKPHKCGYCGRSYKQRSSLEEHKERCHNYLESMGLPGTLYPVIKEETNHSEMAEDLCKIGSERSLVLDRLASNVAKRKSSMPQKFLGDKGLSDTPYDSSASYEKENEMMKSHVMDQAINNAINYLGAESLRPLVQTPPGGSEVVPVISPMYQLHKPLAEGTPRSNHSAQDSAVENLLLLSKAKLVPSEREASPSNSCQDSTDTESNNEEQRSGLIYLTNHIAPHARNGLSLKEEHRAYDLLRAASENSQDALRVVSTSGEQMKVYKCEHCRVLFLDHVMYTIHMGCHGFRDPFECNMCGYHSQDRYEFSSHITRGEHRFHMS
T5 sequence (Q96SW2 whole entry): as the sequence (Q96SW2 whole entry) above
T5 sequence (Q16531 whole entry partner): as the sequence (Q16531 whole entry partner) above

[1] = target: T6, human Cereblon WT GST-tagged protein (Homo sapiens, UniProt Q96SW2); test: CRBN-binding affinity, HTRF (CEREBLON BINDING kit); details: for inhibition at 0.5 µM: read-out: Inhibition Rate at 0.5 µM (%); for inhibition at 2 µM: read-out: Inhibition Rate at 2 µM (%)
T6 construct: purchased CISBIO 64BDCRBNPEH
T6 sequence (Q96SW2 whole entry): as the sequence (Q96SW2 whole entry) above

GSPT1 = test: Western blot, degradation of substrate protein in hPBMCs; assay type: cell-based, Human; details: Western blot, 24 hours of compound treatment, compounds tested at 50 nM and 500 nM (concentration for the table not stated)

Compound | IKZF2 substrate protein remaining % (IKZF2) | IKZF3 substrate protein remaining % (IKZF3) | Wee1 substrate protein remaining % (WEE1) | CK1α substrate protein remaining % (CK1α) | IKZF 1 substrate protein remaining % (IKZF1) | inhibition at 0.5 µM [1] | inhibition at 2 µM [1] | GSPT1 substrate protein remaining % (GSPT1)
O=C1CCC(N2Cc3c(CN4CC=C(c5cncc(Cl)c5Cl)CC4)cccc3C2=S)C(=O)N1 (stereo not drawn) [GT-08460, 3-(4-((4,5-dichloro-3',6'-dihydro-[3,4'-bipyridin]-1'(2'H)-yl)methyl)-1-thioxoisoindolin-2-yl)piperidine-2,6-dione] | B (80%< substrate protein remaining %≤ 100%) | A (0% ≤ substrate protein remaining % ≤ 80%) | A (0% ≤ substrate protein remaining % ≤ 80%) | B (80%< substrate protein remaining %≤ 100%) | B (80%< substrate protein remaining %≤ 100%) | 60 to 80% | 80 to 100% | B (80%< substrate protein remaining %≤ 100%)
O=C1CCC(N2Cc3c(CN4CC=C(c5cncc(Cl)c5)CC4)cccc3C2=S)C(=O)N1 (stereo not drawn) [GT-08461, 3-(4-((5-chloro-3',6'-dihydro-[3,4'-bipyridin]-1'(2'H)-yl)methyl)-1-thioxoisoindolin-2-yl)piperidine-2,6-dione] | B (80%< substrate protein remaining %≤ 100%) | A (0% ≤ substrate protein remaining % ≤ 80%) | A (0% ≤ substrate protein remaining % ≤ 80%) | B (80%< substrate protein remaining %≤ 100%) | B (80%< substrate protein remaining %≤ 100%) | 60 to 80% | 80 to 100% | B (80%< substrate protein remaining %≤ 100%)
O=C1CCC(N2Cc3c(CN4CC=C(c5ccnc(Cl)c5Cl)CC4)cccc3C2=S)C(=O)N1 (stereo not drawn) [GT-08462, 3-(4-((2',3'-dichloro-3,6-dihydro-[4,4'-bipyridin]-1(2H)-yl)methyl)-1-thioxoisoindolin-2-yl)piperidine-2,6-dione] | B (80%< substrate protein remaining %≤ 100%) | B (80%< substrate protein remaining %≤ 100%) | A (0% ≤ substrate protein remaining % ≤ 80%) | B (80%< substrate protein remaining %≤ 100%) | B (80%< substrate protein remaining %≤ 100%) | 60 to 80% | 80 to 100% | B (80%< substrate protein remaining %≤ 100%)
O=C1CCC(N2Cc3c(CN4CC5CCC4CN5c4cccc(Cl)c4Cl)cccc3C2=S)C(=O)N1 (stereo not drawn) [GT-08469, 3-(4-((5-(2,3-dichlorophenyl)-2,5-diazabicyclo[2.2.2]octan-2-yl)methyl)-1-thioxoisoindolin-2-yl)piperidine-2,6-dione] | B (80%< substrate protein remaining %≤ 100%) | B (80%< substrate protein remaining %≤ 100%) | B (80%< substrate protein remaining %≤ 100%) | B (80%< substrate protein remaining %≤ 100%) | B (80%< substrate protein remaining %≤ 100%) | 40 to 53% | 60 to 80% | A (0% ≤ substrate protein remaining % ≤ 80%)
O=C1CCC(N2Cc3c(CN4CC5CCC(C4)N5c4cccc(Cl)c4Cl)cccc3C2=S)C(=O)N1 (stereo not drawn) [GT-08470, 3-(4-((8-(2,3-dichlorophenyl)-3,8-diazabicyclo[3.2.1]octan-3-yl)methyl)-1-thioxoisoindolin-2-yl)piperidine-2,6-dione] | B (80%< substrate protein remaining %≤ 100%) | B (80%< substrate protein remaining %≤ 100%) | B (80%< substrate protein remaining %≤ 100%) | B (80%< substrate protein remaining %≤ 100%) | B (80%< substrate protein remaining %≤ 100%) | 20 to 30% | 53 to 60% | A (0% ≤ substrate protein remaining % ≤ 80%)
O=C1CCC(N2Cc3c(CN4CCCN(c5cccc(Cl)c5Cl)CC4)cccc3C2=S)C(=O)N1 (stereo not drawn) [GT-08472, 3-(4-((4-(2,3-dichlorophenyl)-1,4-diazepan-1-yl)methyl)-1-thioxoisoindolin-2-yl)piperidine-2,6-dione] | B (80%< substrate protein remaining %≤ 100%) | B (80%< substrate protein remaining %≤ 100%) | B (80%< substrate protein remaining %≤ 100%) | B (80%< substrate protein remaining %≤ 100%) | B (80%< substrate protein remaining %≤ 100%) | 40 to 53% | 80 to 100% | A (0% ≤ substrate protein remaining % ≤ 80%)
